Earlier results, collected in patent publication US20050163858A1 (priority 2003, published 2005).

Experiments:
dopamine D2 = dopamine D2 (Homo sapiens, UniProt P14416)
serotonin 5HT1A = target: T1, serotonin 5HT1A (Homo sapiens, UniProt P08908)
T1 sequence (P08908 1-422): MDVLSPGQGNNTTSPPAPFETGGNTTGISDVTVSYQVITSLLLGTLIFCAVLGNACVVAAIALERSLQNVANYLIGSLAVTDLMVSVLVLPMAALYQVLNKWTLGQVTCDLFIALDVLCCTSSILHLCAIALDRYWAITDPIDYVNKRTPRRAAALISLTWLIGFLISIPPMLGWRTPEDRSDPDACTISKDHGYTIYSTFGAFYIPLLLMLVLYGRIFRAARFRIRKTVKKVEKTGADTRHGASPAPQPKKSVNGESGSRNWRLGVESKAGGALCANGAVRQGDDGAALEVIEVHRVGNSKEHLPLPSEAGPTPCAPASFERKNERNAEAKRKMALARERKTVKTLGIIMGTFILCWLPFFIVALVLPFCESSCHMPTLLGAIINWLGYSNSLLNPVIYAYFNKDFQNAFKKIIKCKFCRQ

serotonin 5HT2C = target: T2, serotonin 5HT2C (Homo sapiens, UniProt P28335)
T2 sequence (P28335 33-458): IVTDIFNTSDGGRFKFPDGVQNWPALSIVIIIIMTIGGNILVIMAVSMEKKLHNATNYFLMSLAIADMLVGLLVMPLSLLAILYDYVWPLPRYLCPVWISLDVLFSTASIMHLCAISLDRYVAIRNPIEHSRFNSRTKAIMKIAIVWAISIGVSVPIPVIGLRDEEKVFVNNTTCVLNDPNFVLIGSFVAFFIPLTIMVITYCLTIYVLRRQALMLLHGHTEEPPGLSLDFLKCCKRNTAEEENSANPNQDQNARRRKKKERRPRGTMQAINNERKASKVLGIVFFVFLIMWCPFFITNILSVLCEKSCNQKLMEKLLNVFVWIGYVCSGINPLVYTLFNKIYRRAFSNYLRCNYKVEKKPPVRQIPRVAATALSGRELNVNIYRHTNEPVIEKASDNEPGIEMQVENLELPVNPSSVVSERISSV

serotonin 5HT2A = serotonin 5HT2A (Homo sapiens, UniProt P28223)
Chain of serotonin 5HT2A (P28223 whole entry): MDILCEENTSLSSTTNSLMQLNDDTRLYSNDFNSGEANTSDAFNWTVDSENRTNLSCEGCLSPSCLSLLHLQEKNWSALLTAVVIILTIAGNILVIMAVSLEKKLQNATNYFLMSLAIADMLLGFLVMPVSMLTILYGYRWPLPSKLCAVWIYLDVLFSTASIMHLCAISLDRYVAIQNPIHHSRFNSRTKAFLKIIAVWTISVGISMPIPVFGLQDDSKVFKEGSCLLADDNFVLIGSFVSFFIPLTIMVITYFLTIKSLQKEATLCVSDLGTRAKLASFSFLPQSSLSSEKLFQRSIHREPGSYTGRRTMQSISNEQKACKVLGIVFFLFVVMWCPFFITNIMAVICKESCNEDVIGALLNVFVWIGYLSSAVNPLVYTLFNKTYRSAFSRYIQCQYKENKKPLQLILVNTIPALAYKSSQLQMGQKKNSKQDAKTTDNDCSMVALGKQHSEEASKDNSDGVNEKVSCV

Measured: in vitro binding affinity

Chain of dopamine D2 (P14416 whole entry): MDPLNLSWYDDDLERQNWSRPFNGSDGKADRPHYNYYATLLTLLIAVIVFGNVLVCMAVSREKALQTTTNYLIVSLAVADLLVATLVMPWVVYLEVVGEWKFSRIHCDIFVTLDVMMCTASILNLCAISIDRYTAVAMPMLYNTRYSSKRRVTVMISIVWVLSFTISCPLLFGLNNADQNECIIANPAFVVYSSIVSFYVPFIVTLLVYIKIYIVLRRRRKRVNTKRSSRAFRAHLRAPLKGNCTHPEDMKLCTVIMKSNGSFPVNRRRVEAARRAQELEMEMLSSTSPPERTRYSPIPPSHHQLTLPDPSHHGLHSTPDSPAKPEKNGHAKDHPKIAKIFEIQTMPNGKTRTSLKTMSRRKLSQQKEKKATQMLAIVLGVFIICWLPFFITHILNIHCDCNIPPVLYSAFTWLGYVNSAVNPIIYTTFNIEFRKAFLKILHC

O=C1Cc2cc(CCN3CCN(c4nsc5ccccc45)CC3)c(Cl)cc2N1 [Ziprasidone, 5-[2-[4-(1,2-benzisothiazol-3-yl)-1-piperazinyl]ethyl]-6-chloro-1,3-dihydro-2H-indol-2-one]
high: dopamine D2 | serotonin 5HT1A | serotonin 5HT2C | serotonin 5HT2A | serotonin 5HT1D | α1-adrenergic receptors
